Experimental data from paper PMC10764104, “Discovery of Molecular Glue Degraders via Isogenic Morphological Profiling” (ACS Chemical Biology, 2023).

Molecular target: T1, GSPT2 G566N (Homo sapiens, UniProt Q8IYD1, G566N)
T1 construct: expressed in transfected cells; host or cells: RKO cells, lentiviral transduction, puromycin-selected
Experiment: Western blot (HA-tag) of G-loop mutant GSPT2 in RKO cells
Type: cell-based
Conditions: RKO cells stably overexpressing HA-GSPT2 G566N, 16 h; 10 μM FL2-14 or 10 nM CC-885
Experimental: Figure 3 FL2-14 is a selective GSPT2 molecular glue degrader. (A) Structure of FL2-14 comprising fluorosulfate scaffold FL2 (black) and tail group modification 14 (blue). (B) DMSO-normalized quantitative proteomics after 16 h of treatment with FL2-14 (10 μM) in RKO WT (n = 2). […] (C) Structural alignment of AlphaFold models of GSPT1 (AF-P15170-F1-model_v4 in gray) and GSPT2 (AF-Q8IYD1-F1-model_v4 in blue). (D) Validation of GSPT2 degradation by FL2-14. […] (E) Dose–response of FL2-14 in RKO and HEK293T cells. Cells were treated with the FL2-14 (0 to 10 μM) for 16 h. (F) Degradation of GSPT2^WT or GSPT2^G566N.
Prediction of the G‐loop degron sequence in GSPT2
We first compiled all CRBN degron sequences with known crystal structures (Table S 2). We subsequently discarded 6UML as its degron sequence included an alanine instead of the typical glycine observed in the seventh amino acid residue of other degron sequences, leaving six degron sequences. We then scanned the latest AlphaFold structure of GSPT215 for a potential stretch of 10 amino acids that would align best with each degron sequence. We yielded the same stretch of amino acid residues from position 560 to 569 ([…]) and RMSD values under 0.5 Å.
Table S 2: List of crystal structures used for the computational prediction of the G‐loop degron sequence […]
PDB code Resolution (Å) Chain Segment Sequence Reference
Analysis of G‐loop mutation […]

T1 sequence (Q8IYD1 whole entry G566N): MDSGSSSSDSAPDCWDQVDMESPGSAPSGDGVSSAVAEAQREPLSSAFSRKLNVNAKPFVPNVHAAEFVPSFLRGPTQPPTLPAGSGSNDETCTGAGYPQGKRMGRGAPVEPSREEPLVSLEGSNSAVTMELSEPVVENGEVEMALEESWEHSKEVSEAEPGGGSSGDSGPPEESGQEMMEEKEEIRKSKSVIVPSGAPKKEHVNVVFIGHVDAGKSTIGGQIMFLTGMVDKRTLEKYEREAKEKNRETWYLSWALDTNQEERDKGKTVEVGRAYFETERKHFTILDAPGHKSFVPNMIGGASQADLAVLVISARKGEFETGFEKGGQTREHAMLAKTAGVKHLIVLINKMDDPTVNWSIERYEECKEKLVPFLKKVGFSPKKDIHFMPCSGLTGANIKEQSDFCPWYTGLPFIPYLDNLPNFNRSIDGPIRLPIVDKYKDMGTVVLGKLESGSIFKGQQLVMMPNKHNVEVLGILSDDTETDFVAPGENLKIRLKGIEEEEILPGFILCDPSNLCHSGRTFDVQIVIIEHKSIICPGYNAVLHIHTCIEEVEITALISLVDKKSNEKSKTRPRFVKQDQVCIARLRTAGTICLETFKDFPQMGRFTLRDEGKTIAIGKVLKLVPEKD

## Cc1ccc(NC(=O)NCc2ccc3c(c2)CN(C2CCC(=O)NC2=O)C3=O)cc1Cl (stereo not shown) [CC-885, reference compound]
  degradation of HA-tagged GSPT2 G566N (glycine of G-loop replaced by asparagine): rescued degradation of GSPT2
